Test results published in ChEMBL document CHEMBL3351663, “Discovery of acylurea isosteres of 2-acylaminothiadiazole in the azaxanthene series of glucocorticoid receptor agonists” (Bioorg Med Chem Lett, 2014).

Tests used:
Glucocorticoid receptor [1] = target: T1, Glucocorticoid receptor (Homo sapiens, UniProt P04150); assay: Binding affinity to glucocorticoid receptor (unknown origin) by fluorescence polarization assay
T1 sequence (P04150 whole entry): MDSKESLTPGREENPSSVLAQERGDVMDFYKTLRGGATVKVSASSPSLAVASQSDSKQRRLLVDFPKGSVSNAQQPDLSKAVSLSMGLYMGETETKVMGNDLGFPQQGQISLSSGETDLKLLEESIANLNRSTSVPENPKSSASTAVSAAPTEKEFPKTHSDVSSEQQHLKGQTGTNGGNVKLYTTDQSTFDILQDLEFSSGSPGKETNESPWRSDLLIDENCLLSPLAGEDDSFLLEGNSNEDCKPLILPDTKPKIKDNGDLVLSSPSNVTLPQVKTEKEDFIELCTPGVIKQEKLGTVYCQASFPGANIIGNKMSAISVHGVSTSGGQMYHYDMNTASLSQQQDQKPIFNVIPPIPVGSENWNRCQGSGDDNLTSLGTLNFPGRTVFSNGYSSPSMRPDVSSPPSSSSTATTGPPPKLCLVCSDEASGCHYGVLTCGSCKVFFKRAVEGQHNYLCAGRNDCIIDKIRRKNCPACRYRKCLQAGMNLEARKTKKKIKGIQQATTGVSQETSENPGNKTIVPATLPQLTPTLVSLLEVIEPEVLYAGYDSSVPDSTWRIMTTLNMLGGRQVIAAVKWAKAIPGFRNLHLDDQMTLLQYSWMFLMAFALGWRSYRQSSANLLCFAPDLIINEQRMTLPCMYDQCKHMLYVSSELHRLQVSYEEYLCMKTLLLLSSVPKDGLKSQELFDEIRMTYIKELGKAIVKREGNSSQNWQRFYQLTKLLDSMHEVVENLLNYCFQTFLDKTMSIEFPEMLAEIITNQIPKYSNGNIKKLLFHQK

Progesterone receptor = target: T2, Progesterone receptor (Homo sapiens, UniProt P06401); assay: Binding affinity to progesterone receptor (unknown origin) by fluorescence polarization assay
T2 sequence (P06401 whole entry): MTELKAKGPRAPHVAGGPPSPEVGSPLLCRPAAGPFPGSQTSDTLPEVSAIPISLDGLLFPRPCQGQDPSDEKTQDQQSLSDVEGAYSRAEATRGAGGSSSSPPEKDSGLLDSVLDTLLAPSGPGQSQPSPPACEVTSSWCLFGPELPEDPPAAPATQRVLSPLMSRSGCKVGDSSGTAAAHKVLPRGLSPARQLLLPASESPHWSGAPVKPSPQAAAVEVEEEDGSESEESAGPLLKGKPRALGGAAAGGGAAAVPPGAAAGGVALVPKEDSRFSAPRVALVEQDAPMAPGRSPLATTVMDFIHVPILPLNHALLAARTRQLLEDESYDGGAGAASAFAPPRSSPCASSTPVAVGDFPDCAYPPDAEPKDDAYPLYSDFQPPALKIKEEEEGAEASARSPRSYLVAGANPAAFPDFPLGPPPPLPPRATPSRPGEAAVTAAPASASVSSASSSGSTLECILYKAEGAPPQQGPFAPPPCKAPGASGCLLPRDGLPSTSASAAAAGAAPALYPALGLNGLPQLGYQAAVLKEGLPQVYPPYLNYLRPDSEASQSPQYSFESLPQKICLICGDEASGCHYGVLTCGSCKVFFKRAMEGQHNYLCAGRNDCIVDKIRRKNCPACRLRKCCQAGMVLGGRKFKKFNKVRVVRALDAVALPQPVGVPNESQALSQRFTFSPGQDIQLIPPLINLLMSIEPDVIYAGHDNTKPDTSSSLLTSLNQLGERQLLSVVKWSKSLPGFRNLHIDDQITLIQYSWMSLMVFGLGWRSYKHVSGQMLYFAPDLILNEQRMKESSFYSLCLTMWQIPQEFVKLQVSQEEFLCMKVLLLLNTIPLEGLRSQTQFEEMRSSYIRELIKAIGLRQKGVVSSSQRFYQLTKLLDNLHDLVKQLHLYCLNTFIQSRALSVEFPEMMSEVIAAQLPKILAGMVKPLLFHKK

Glucocorticoid receptor [2] = target: T1, Glucocorticoid receptor; assay: Agonist activity at glucocorticoid receptor in human A549 cells assessed as AP-1 transrepression by luciferase reporter gene assay; format: cell-based
Glucocorticoid receptor [3] = target: T1, Glucocorticoid receptor; design: species or system Blood
Androgen receptor = target: T3, Androgen receptor (Homo sapiens, UniProt P10275); assay: Binding affinity to androgen receptor (unknown origin)
T3 sequence (P10275 whole entry): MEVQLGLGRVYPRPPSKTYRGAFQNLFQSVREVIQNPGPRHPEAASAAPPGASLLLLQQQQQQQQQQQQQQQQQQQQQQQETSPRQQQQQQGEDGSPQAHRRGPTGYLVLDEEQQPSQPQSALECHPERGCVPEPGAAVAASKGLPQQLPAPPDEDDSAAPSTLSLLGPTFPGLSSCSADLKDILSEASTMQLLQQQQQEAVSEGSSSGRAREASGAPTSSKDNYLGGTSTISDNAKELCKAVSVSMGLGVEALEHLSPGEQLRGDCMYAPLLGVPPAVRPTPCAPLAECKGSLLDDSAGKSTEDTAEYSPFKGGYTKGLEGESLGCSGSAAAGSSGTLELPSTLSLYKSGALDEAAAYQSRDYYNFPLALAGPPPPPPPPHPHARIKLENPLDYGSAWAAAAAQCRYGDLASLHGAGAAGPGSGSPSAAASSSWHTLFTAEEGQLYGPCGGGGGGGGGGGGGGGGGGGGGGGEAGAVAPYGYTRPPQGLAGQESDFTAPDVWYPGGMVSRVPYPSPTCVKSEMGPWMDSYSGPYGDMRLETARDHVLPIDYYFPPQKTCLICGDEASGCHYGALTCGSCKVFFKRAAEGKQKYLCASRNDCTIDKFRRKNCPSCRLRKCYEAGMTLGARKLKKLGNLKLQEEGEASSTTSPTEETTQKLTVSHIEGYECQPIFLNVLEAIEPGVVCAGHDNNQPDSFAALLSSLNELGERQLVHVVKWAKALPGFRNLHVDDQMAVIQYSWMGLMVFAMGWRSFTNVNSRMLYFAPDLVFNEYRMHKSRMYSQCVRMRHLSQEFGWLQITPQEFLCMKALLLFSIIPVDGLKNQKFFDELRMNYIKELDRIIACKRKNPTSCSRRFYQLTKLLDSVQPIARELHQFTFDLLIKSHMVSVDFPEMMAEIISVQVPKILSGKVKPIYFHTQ

Cytochrome P450 2C19 = Cytochrome P450 2C19 (Homo sapiens, UniProt P33261); assay: Inhibition of CYP2C19 (unknown origin); format: ADME
Glucocorticoid receptor [4] = target: T1, Glucocorticoid receptor; assay: Agonist activity at glucocorticoid receptor in human A549 cells assessed as E-selectin transrepression by luciferase reporter gene assay; format: cell-based
Liver microsome [5] = assay: Metabolic stability in human liver microsomes assessed as compound remaining
Liver microsome [6] = assay: Metabolic stability in rat liver microsomes assessed as compound remaining
Liver = assay: Metabolic stability in mouse liver microsomes assessed as compound remaining

Sequence of Cytochrome P450 2C19 (P33261 whole entry): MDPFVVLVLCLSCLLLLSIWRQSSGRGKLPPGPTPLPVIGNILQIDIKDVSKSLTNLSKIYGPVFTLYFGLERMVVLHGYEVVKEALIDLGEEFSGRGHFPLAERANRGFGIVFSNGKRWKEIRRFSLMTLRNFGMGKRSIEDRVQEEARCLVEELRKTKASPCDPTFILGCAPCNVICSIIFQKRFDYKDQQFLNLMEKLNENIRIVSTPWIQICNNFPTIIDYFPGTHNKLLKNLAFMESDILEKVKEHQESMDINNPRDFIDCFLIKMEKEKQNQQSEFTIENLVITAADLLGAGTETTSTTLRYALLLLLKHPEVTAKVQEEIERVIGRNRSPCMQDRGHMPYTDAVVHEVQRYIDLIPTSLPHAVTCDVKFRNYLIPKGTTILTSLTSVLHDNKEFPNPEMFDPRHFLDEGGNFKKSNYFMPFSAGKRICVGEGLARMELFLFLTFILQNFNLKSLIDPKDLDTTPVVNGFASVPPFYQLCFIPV

Ki (Glucocorticoid receptor [1]) [nM]	Ki (Progesterone receptor) [nM]	EC50 (Glucocorticoid receptor [2]) [nM]	EC50 (Glucocorticoid receptor [3]) [nM]	Ki (Androgen receptor) [nM]	IC50 (Cytochrome P450 2C19) [nM]	EC50 (Glucocorticoid receptor [4]) [nM]	Stability (Liver microsome [5]) [%]	Stability (Liver microsome [6]) [%]	Stability (Liver) [%]	Compound
1.6	44.9	2.1	21.5	> 50000	1300	–	–	–	–	CC(C)(C(=O)Nc1nncs1)[C@@H]1c2ccc(-c3ccc(C(=O)N4CCOCC4)cc3)nc2Oc2c(F)cccc21
2.1	52.8	2.1	20.3	> 50000	11000	1.2	83	90	80	CC(C)(C(=O)NC(N)=O)[C@@H]1c2ccc(-c3ccc(C(=O)N4CCOCC4)cc3)nc2Oc2c(F)cccc21
